How the values were obtained:
[1] = tested on: wheat; experiment: Test C postemergence; assay type: in vivo, Triticum aestivum
From the text: (§1) Seeds of plant species selected from blackgrass (Alopecurus myosuroides), ryegrass, Italian (Italian ryegrass, Lolium multiflorum), wheat (winter wheat, Triticum aestivum), galium (catchweed bedstraw, Galium aparine), corn (Zea mays), crabgrass, large (large crabgrass, Digitaria sanguinalis), foxtail, giant (giant foxtail, Setaria faberii), johnsongrass (Sorghum halepense), lambsquarters (Chenopodium album), morningglory (Ipomoea coccinea), nutsedge, yellow (yellow nutsedge, Cyperus esculentus), pigweed (redroot pigweed, Amaranthus retroflexus), ragweed (common ragweed, Ambrosia elation), soybean (Glycine max), barnyardgrass (Echinochloa crus-galli), oilseed rape (Brassica napus), waterhemp (common waterhemp, Amaranthus rudis), oat, wild (wild oat, Avena fatua), kochia (Kochia scoparia), Surinam grass (Brachiaria decumbens), foxtail, green (green foxtail, Setaria viridis), goosegrass (Eleusine indica), bromegrass, downy (downy bromegrass, Bromus tectorum), nightshade (eastern black nightshade, Solanum ptycanthum), cocklebur (common cocklebur, Xanthium strumarium), cupgrass, woolly (woolly cupgrass, Eriochloa villosa), bermudagrass (Cynodon dactylon), sunflower, (common oilseed sunflower, Helianthus annuus), Russian thistle (Salsola kali), and velvetleaf (Abutilon theophrasti) were planted into a blend of loam soil and sand and treated preemergence with test chemicals formulated in a non-phytotoxic solvent mixture which included a surfactant.
(§2) At the same time, plants selected from these crop and weed species and also chickweed (common chickweed, Stellaria media), canarygrass (littleseed canarygrass, Phalaris minor), and deadnettle (henbit deadnettle, Lamium amplexicaule), were planted in pots containing Redi-Earth® planting medium (Scotts Company, 14111 Scottslawn Road, Marysville, Ohio 43041) comprising spaghnum peat moss, vermiculite, wetting agent and starter nutrients and treated with postemergence applications of test chemicals formulated in the same manner. Plants ranged in height from 2 to 18 cm (1- to 4-leaf stage) for postemergence treatments. Treated plants and controls were maintained in a greenhouse for 13 to 15 days, after which time all species were compared to controls and visually evaluated. Plant response ratings, summarized in Table C, are based on a scale of 0 to 100 where 0 is no effect and 100 is complete control. A dash (-) response means no test result.

[2] = tested on: velvetleaf; experiment: Test C postemergence; assay type: in vivo, Abutilon theophrasti
From the text: as §1, §2

[3] = tested on: nutsedge, yellow; experiment: Test C postemergence; assay type: in vivo, Cyperus esculentus
From the text: as §1, §2

[4] = tested on: kochia; experiment: Test C postemergence; assay type: in vivo, Kochia scoparia
From the text: as §1, §2

[5] = tested on: morningglory; experiment: Test C postemergence; assay type: in vivo, Ipomoea coccinea
From the text: as §1, §2

[6] = tested on: soybean; experiment: Test C postemergence; assay type: in vivo, Glycine max
From the text: as §1, §2

[7] = tested on: lambsquarters; experiment: Test C postemergence; assay type: in vivo, Chenopodium album
From the text: as §1, §2

[8] = tested on: ryegrass, Italian; experiment: Test C postemergence; assay type: in vivo, Lolium multiflorum
From the text: as §1, §2

[9] = tested on: blackgrass; experiment: Test C postemergence; assay type: in vivo, Alopecurus myosuroides
From the text: as §1, §2

[10] = tested on: pigweed; experiment: Test C postemergence; assay type: in vivo, Amaranthus retroflexus
From the text: as §1, §2

[11] = tested on: corn; experiment: Test C postemergence; assay type: in vivo, Zea mays
From the text: as §1, §2

[12] = tested on: chickweed; experiment: Test C postemergence; assay type: in vivo, Stellaria media
From the text: as §1, §2

[13] = tested on: galium; experiment: Test C postemergence; assay type: in vivo, Galium aparine; settings: for Plant response rating, Galium: postemergence
From the text: as §1, §2

[14] = tested on: johnsongrass; experiment: Test C postemergence; assay type: in vivo, Sorghum halepense
From the text: as §1, §2

[15] = tested on: waterhemp; experiment: Test C postemergence; assay type: in vivo, Amaranthus rudis
From the text: as §1, §2

[16] = tested on: foxtail, giant; experiment: Test C postemergence; assay type: in vivo, Setaria faberii
From the text: as §1, §2

[17] = tested on: oilseed rape; experiment: Test C postemergence; assay type: in vivo, Brassica napus
From the text: as §1, §2

[18] = tested on: lambsquarters; experiment: Test C preemergence; assay type: in vivo, Chenopodium album
From the text: as §1, §2

[19] = Postemergence, 31 g ai/ha, visually evaluated after 13 to 15 days
[20] = postemergence, 62 g ai/ha, scale 0 to 100
[21] = postemergence, 250 g ai/ha, scale 0 to 100 (0 no effect, 100 complete control)
[22] = postemergence, 125 g ai/ha, scale 0 to 100, 0 no effect, 100 complete control
[23] = preemergence, 31 g ai/ha, visual rating, scale 0 to 100 (0 no effect, 100 complete control), 13 to 15 days
[24] = preemergence, 62 g ai/ha, scale 0 to 100 (0 no effect, 100 complete control), 13 to 15 days
[25] = preemergence, 125 g ai/ha, 13 to 15 days, scale 0 to 100, 0 = no effect, 100 = complete control
[26] = preemergence, 250 g ai/ha, scale 0 to 100, 0 is no effect, 100 is complete control

SMILES: CCc1cc(C(=O)NCC(F)(F)F)nn1Cc1ccnc(C(F)(F)F)c1 [Compound 78, 5-ethyl-N-(2,2,2-trifluoroethyl)-1-[[(2-trifluoromethyl)-4-pyridinyl]methyl]-1H-pyrazole-3-carboxamide]
- Plant response rating (scale of 0 to 100 where 0 is no effect and 100 is complete control), Wheat [1, 19]: 5
- Wheat plant response rating [1, 20]: 10
- Plant response rating, Wheat [1, 21]: 35
- Plant response rating, Wheat [1, 22]: 10
- Plant response rating (scale of 0 to 100 where 0 is no effect and 100 is complete control), Velvetleaf [2, 19]: 15
- Velvetleaf plant response rating [2, 20]: 20
- Plant response rating, Velvetleaf [2, 21]: 75
- Plant response rating, Velvetleaf [2, 22]: 50
- Plant response rating (scale of 0 to 100 where 0 is no effect and 100 is complete control), Nutsedge, Yellow [3, 19]: 5
- Nutsedge, Yellow plant response rating [3, 20]: 5
- Plant response rating, Nutsedge, Yellow [3, 21]: 15
- Plant response rating, Nutsedge, Yellow [3, 22]: 10
- Plant response rating (scale of 0 to 100 where 0 is no effect and 100 is complete control), Kochia [4, 19]: 85
- Kochia plant response rating [4, 20]: 90
- Plant response rating, Kochia [4, 21]: 90
- Plant response rating, Kochia [4, 22]: 90
- Plant response rating (scale of 0 to 100 where 0 is no effect and 100 is complete control), Morningglory [5, 19]: 70
- Morningglory plant response rating [5, 20]: 80
- Plant response rating, Morningglory [5, 21]: 100
- Plant response rating, Morningglory [5, 22]: 90
- Plant response rating (scale of 0 to 100 where 0 is no effect and 100 is complete control), Soybean [6, 19]: 50
- Soybean plant response rating [6, 20]: 80
- Plant response rating, Soybean [6, 21]: 85
- Plant response rating, Soybean [6, 22]: 80
- Plant response rating (scale of 0 to 100 where 0 is no effect and 100 is complete control), Lambsquarters [7, 19]: 60
- Lambsquarters plant response rating [7, 20]: 75
- Plant response rating, Lambsquarters [7, 21]: 98
- Plant response rating, Lambsquarters [7, 22]: 95
- Plant response rating (scale of 0 to 100 where 0 is no effect and 100 is complete control), Ryegrass, Italian [8, 19]: 5
- Ryegrass, Italian plant response rating [8, 20]: 5
- Plant response rating, Ryegrass, Italian [8, 21]: 35
- Plant response rating, Ryegrass, Italian [8, 22]: 5
- Plant response rating (scale of 0 to 100 where 0 is no effect and 100 is complete control), Blackgrass [9, 19]: 5
- Blackgrass plant response rating [9, 20]: 5
- Plant response rating, Blackgrass [9, 21]: 50
- Plant response rating, Blackgrass [9, 22]: 10
- Plant response rating (scale of 0 to 100 where 0 is no effect and 100 is complete control), Pigweed [10, 19]: 40
- Pigweed plant response rating [10, 20]: 75
- Plant response rating, Pigweed [10, 21]: 98
- Plant response rating, Pigweed [10, 22]: 90
- Plant response rating (scale of 0 to 100 where 0 is no effect and 100 is complete control), Corn [11, 19]: 10
- Corn plant response rating [11, 20]: 15
- Plant response rating, Corn [11, 21]: 80
- Plant response rating, Corn [11, 22]: 25
- Plant response rating (scale of 0 to 100 where 0 is no effect and 100 is complete control), Chickweed [12, 19]: 65
- Chickweed plant response rating [12, 20]: 80
- Plant response rating, Chickweed [12, 21]: 85
- Plant response rating, Chickweed [12, 22]: 80
- Plant response rating (scale of 0 to 100 where 0 is no effect and 100 is complete control), Galium [13, 19]: 80
- Plant response rating, Galium ([13]; 250 g ai/ha, scale 0 to 100 (0 no effect, 100 complete control)): 80
- Plant response rating, Galium ([13]; 125 g ai/ha, scale 0 to 100, 0 no effect, 100 complete control): 80
- Plant response rating (scale of 0 to 100 where 0 is no effect and 100 is complete control), Johnsongrass [14, 19]: 0
- Johnsongrass plant response rating [14, 20]: 5
- Plant response rating, Johnsongrass [14, 21]: 75
- Plant response rating, Johnsongrass [14, 22]: 55
- Plant response rating (scale of 0 to 100 where 0 is no effect and 100 is complete control), Waterhemp [15, 19]: 50
- Waterhemp plant response rating [15, 20]: 70
- Plant response rating, Waterhemp [15, 21]: 95
- Plant response rating, Waterhemp [15, 22]: 80
- Plant response rating (scale of 0 to 100 where 0 is no effect and 100 is complete control), Foxtail, Giant [16, 19]: 15
- Foxtail, Giant plant response rating [16, 20]: 20
- Plant response rating, Foxtail, Giant [16, 21]: 95
- Plant response rating, Foxtail, Giant [16, 22]: 50
- Plant response rating (scale of 0 to 100 where 0 is no effect and 100 is complete control), Oilseed Rape [17, 19]: 45
- Oilseed Rape plant response rating [17, 20]: 45
- Plant response rating, Oilseed Rape [17, 21]: 55
- Plant response rating, Oilseed Rape [17, 22]: 50

SMILES: CCONC(=O)c1cc(CC)n(Cc2cc(C(F)(F)F)no2)n1 [Compound 125]
- Plant response rating (scale of 0 to 100), Lambsquarters ([18]; Preemergence, 250 g ai/ha): 100
- Lambsquarters plant response rating [18, 23]: 15
- Lambsquarters plant response rating [18, 24]: 35
- Lambsquarters plant response rating ([18]; preemergence, 125 g ai/ha, scale 0 to 100, 0 is no effect, 100 is complete control): 75

SMILES: CCNC(=O)c1cc(CCCl)n(Cc2ccnc(C(F)(F)F)c2)n1 [Compound 179]
- Lambsquarters plant response rating [18, 23]: 90
- Lambsquarters plant response rating [18, 24]: 100
- Plant response rating, Lambsquarters [18, 25]: 100
- Lambsquarters plant response rating [18, 26]: 100

SMILES: CCc1cc(C(=O)NC2CC2)nn1Cc1cc(C(F)(F)C(F)(F)F)nn1C [Compound 226]
- Plant response rating, Lambsquarters ([18]; Preemergence, rate head not shown (block before 16 g ai/ha), scale 0 to 100): 100
- Lambsquarters plant response rating [18, 24]: 100
- Plant response rating, Lambsquarters [18, 25]: 100
- Lambsquarters plant response rating [18, 26]: 100

Source: patent publication US20150105252A1, “SUBSTITUTED PYRAZOLES AS HERBICIDES” (E I DU PONT DE NEMOURS AND COMPANY, priority 2013, published 2015)
